{"source": "patent US11383008B2", "about": "“Surface-modified polymeric substrates grafted with a properties-imparting compound using clip chemistry” (Centre National de la Recherche Scientifique (CNRS), priority 2016, dated 2022)", "test": "Stability of MRI-visibility of grafted substrates after incubation in PBS", "format": "physicochemical", "details": "grafted on substrates (PP meshes, thread-like shape); two months in PBS medium (pH=7.4) at 37° C.; FIG. 9C", "method": "Bruker 7T BIOSPEC 70/20, “mini-imaging” configuration (gradient BGA12 675 mt/m, resonator “bird cage” 35 mm). After a set of marker gradient echo sequences, a spin3D echo sequence was acquired (FOV 3*3*1 cm matrix 128*128*48, TR=3000 ms, TE=8 ms (TEeff=16), RF=8, acquisition time of 0:51) with an inversion delay of 1300 ms.\nMGE 3D sequences with TR/TE 110/3 ms and angles of 75, 30 and 15° were acquired.\nStability of MRI-visibility for PP modified meshes after 2 months in saline phosphate buffer (pH 7.4, 37° C.) is shown in FIG. 9C.", "data": [{"substance": "4-Azidoaniline Modified Gd-Diethylene Triamine Pentaacetic Acid (Gd-DTPA-biN3) Complex", "values": [{"measurement": "MRI image after incubation (stability of MRI-visibility)", "result": "does not show any image degradation"}]}]}
